Data on 22 compounds can be found in PubChem BioAssay (NCI).

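Where inhibition never reached the appropriate level, the endpoint shown equals the highest concentration tested. Otherwise, values were interpolated linearly from a five-concentration, 48-hour dose response in 96-well plates. The concentration for 50% growth inhibition is given as GI50. TGI is the concentration that stops growth completely.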

What all share (assay): NCI tumour cell line growth inhibition, 48 h
The subject of assay [1] is XF 498 CNS.
Assay [2] concerns KM20L2 colon.
For assay [3], the system named is DMS 114 small cell lung.
The subject of assay [4] is HOP-18 NSCLC.
Assay [5] deals with LXFL 529 NSCLC.
For assay [6], the system named is DMS 273 small cell lung.
In assay [7] the test system is DLD-1 colon.
The subject of assay [8] is RXF-631 renal.
Assay [9] deals with MDA-N.

For `CNC(=O)OCc1cc2ccncc2c2c1[nH]c1ccccc12`, the TGI in assay [1] was 97.9 µM; in assay [2] it was above 100 µM; in [3], above 100 µM; in assay [4], above 100 µM; in assay [5] it was above 100 µM; in [6] it was above 100 µM. In [7], this compound yielded a TGI above 100 µM.

On to `COc1cc2c3c(c1OCc1ccccc1)NCCC3NCC2` (configuration not stated), for which the TGI in assay [1], in [2], in [3], in assay [5], in [6] and in [7] was above 100 µM throughout. The TGI in assay [8] was above 100 µM.

As for `CCCC(=O)Nc1ncnc2c1ncn2C1OC2COP(=O)(O)OC2C1OC(=O)CCC` (configuration not stated), in [9], the GI50 was above 1000 µM and the TGI was above 1000 µM.

The compound `O=[N+]([O-])c1ccc(NN=C2c3ccccc3Cc3ccccc32)c([N+](=O)[O-])c1` registered a TGI in [9] of 7.75 µM.

In assay [9], `Cc1ccc2nc(CC(=O)c3ccc4ccccc4c3)c(=O)[nH]c2c1` yielded a TGI above 100 µM.

In the case of `CCCCCCCCCCNC(=S)OCCCC`, the TGI in [1] turned out to be 39.8 µM; in [2], 37.7 µM; in assay [3], 45.8 µM; in assay [4], 81.5 µM; in [5], 55.6 µM; in assay [6], 42.3 µM. Moreover, the TGI in assay [7] amounted to 85.4 µM; in assay [8], 87.1 µM.

For `NC(=O)OCC(COc1ccc(Cl)cc1)OC(=O)c1cc([N+](=O)[O-])cc([N+](=O)[O-])c1` (configuration not stated), the TGI in assay [1] was above 100 µM; in assay [2], above 100 µM; in assay [3], 53.8 µM; in assay [4] it was above 100 µM; in [5] it was above 100 µM; in assay [6] it was above 100 µM. The TGI in [7] and in assay [8] was above 100 µM each time.

Consider `CCOC(=O)/C(=C/c1ccc(Cl)cc1)N(CC)CC`, for which the TGI in assay [1], in [4], in [5] and in assay [7] was above 100 µM each time.

Regarding `C/C=C/C=C\C(=O)C1c2cccc(O)c2C(=O)c2c(O)cc(C)cc21` (configuration not stated), the TGI in [1] was found to be 0.57 µM; in [2], 3.94 µM; in assay [3] it was 1.39 µM; in [4], 3.32 µM; in assay [6] it was 3.06 µM; in assay [7], 3.67 µM.

With `COc1cccc(N2C(=O)[C@H]3[C@H]4CC(C(C)(C)C)CC[C@H]4c4c([nH]c5ccccc45)[C@H]3C2=O)c1` (some centres not stated), the TGI was found to be 38 µM in assay [3]; 42.3 µM in assay [5]; 36.8 µM in assay [6]; 65.1 µM in assay [7]; 33.2 µM in [8].

In [9], `C/C=C(\C)C(=O)OC1C2C(C)C(=O)OC2C(O)C(C)C2C=CC(=O)C21C` (configuration not stated) came in with a TGI of 22.8 µM.

Turning to `Nc1nc(Cl)nc2c1ncn2C1CCC(COP(=O)(O)OP(=O)(O)OP(=O)(O)O)O1` (configuration not stated), the TGI in [9] was above 100 µM.

For `C=C(CN(C)C)C(=O)c1ccc(OC)cc1`, the TGI stood at 5.1 µM in assay [1]; 22.5 µM in assay [9]; 13.7 µM in [2]; 8.38 µM in assay [3]; 9.35 µM in assay [4]; 3.31 µM in assay [5]. In addition, the TGI worked out at 11.6 µM in assay [6] and 2.03 µM in assay [7].

As to `CCC[CH2][Ge]([CH2]CCC)([CH2]CCC)[O]C(=O)C(OC(C)=O)c1ccccc1` (configuration not stated), the GI50 in assay [1] was 2.57 µM; in [2] it was 0.652 µM; in assay [4], 16.2 µM; in assay [5], 1.31 µM; in assay [6] it was 5.84 µM; in [7] it was 1.76 µM. For the same compound, the TGI in [1] is 15.4 µM; in assay [2] it was 15.2 µM; in [4], 43.8 µM; in [5], 21 µM; in assay [6] it was above 37 µM; in assay [7] it was 19 µM.

For the compound `Cc1cc(O)c(O)c(Oc2cc(C)cc(O)c2O)c1`, the TGI in [9] was above 100 µM.

For `O=C(NCCCCCCNC(=O)NC1OCC(O)C(O)C1O)NC1OCC(O)C(O)C1O` (configuration not stated), the TGI in [3], in assay [5] and in assay [7] was above 100 µM throughout.

As for `Cc1cc2c(=O)c3ccccc3oc2c(C#N)c1C`, the TGI in assay [9] is above 100 µM.

In assay [9], `O=C(NCc1cccs1)OC1CC2CCC1C2` (configuration not stated) returned a TGI above 100 µM.

In the case of `CN/N=C(/CC(=O)c1sc(-n2nc(-c3ccccc3)cc2-c2ccccc2)nc1C)C(=O)Nc1ccc(Cl)c(Cl)c1`, the TGI in [5] and in assay [7] was above 100 µM in each case.

As for `COc1ccc(NC(=O)CC(=O)n2nc(-c3ccccc3)c(N=Nc3ccccc3C)c2-c2ccccc2)cc1`, the TGI is 33.3 µM in assay [1]; above 100 µM in assay [9]; above 100 µM in assay [2]; 49.7 µM in assay [3]; above 100 µM in assay [4]; above 100 µM in assay [5]. Also, the TGI in [6] is 41.2 µM; in assay [7], 82.5 µM; in [8], above 100 µM.

For the compound `CO[C@]12CCC(=O)N1C=Cc1c2[nH]c2ccccc12`, the TGI in assay [3], in assay [4], in assay [5] and in assay [7] was above 100 µM throughout.

As to `C[CH2][Sn]([Cl])([CH2]C)[CH2]C`, the GI50 in assay [1] is 0.867 µM; in [2], 0.524 µM; in [3], 0.968 µM; in [5] it was 0.469 µM; in [7], 0.973 µM. Also, the TGI turned out to be 3.26 µM in [1]; 2.99 µM in [2]; 4.7 µM in [3]; 3.27 µM in assay [5]; 15.8 µM in [7].
